Measured values as given in US20080020973A1 (priority 2004, published 2008).
Read-outs that look alike come from different tables or passages of the source.

Key:
[1] = target: T1, vaccinia DNA topoisomerase IB (vTopo) (Vaccinia virus, UniProt P68698); test: biochemical; conditions: for remaining activity at 100 µM: 0.5 h, read-out: % vTopo activity
[2] = target: T1, vaccinia DNA topoisomerase IB (vTopo); test: biochemical
human topo IB enzyme = target: T2, human topo IB enzyme (Homo sapiens, UniProt P11387); conditions: cited from earlier work
T2 sequence (P11387 1-765): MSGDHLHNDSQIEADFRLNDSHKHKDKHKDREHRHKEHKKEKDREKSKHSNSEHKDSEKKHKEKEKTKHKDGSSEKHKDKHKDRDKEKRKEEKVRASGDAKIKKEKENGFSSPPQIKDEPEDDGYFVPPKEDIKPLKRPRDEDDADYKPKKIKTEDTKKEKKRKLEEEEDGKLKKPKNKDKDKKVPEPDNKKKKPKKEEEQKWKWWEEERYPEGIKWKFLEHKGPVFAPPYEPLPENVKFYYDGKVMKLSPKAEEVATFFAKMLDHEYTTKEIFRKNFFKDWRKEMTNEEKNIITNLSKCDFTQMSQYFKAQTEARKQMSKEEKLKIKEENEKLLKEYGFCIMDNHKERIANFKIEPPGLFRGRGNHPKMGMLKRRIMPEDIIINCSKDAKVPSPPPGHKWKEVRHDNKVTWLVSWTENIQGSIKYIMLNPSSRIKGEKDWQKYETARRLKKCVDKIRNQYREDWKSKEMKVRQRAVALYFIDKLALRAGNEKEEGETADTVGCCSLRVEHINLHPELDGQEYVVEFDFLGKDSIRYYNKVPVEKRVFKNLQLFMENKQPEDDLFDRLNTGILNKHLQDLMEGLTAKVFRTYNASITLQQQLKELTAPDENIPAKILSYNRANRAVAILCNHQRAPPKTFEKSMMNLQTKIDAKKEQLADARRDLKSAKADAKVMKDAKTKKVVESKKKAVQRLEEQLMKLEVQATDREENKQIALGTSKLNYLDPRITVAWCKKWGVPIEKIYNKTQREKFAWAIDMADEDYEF

vTopo [3] = target: T3, vTopo (Vaccinia virus, UniProt P68698); conditions: inhibition of vTopo; cited from earlier work
T3 construct: made in house

Y274F vTopo = target: T4, Y274F vTopo (Vaccinia virus, UniProt P68698, Y274F); type: binding
T4 construct: made in house

vTopo [4] = target: T3, vTopo; type: biochemical
vTopo [5] = target: T3, vTopo; type: biochemical; conditions: equilibrium cleavage
vTopo [6] = target: T3, vTopo; type: biochemical; remark: listed apart in the source
[7] = target: human topoisomerase type IB (hTopo) (Homo sapiens, UniProt P11387); test: biochemical; type: biochemical
[8] = read-out: % Inhibition (RNAse HTS)
[9] = read-out: % Inhibition (plasmid SC release assay)

C/C(=N\C1CCCCC1)c1ccccc1O [NSC 120917]
remaining activity at 100 µM [1]: 28%
inhibition of the relaxation reaction [2]: complete inhibition

N#C/C(=C\Nc1ccccn1)C(=O)c1ccco1 [NSC 379552]
remaining activity at 100 µM [1]: 7%

COc1ccc2c3c([nH]c2c1)C1CC2C(CC(O)C(OC)C2C(=O)O)CN1CC3 (stereo not shown) [NSC 81463]
% Inhibition (RNAse HTS) ([1]; 100 µM): Partial @100 μM

CO[C@@H]1[C@@H](OC(N)=O)[C@@H](O)[C@H](Oc2ccc3c(O)c(NC(=O)c4ccc(O)c(CC=C(C)C)c4)c(=O)oc3c2C)OC1(C)C [novobiocin]
inhibition of human topo IB enzyme (human topo IB enzyme): no inhibition
Ki (vTopo [3]): 325 µM
inhibition of the relaxation reaction [2]: complete inhibition

COc1ccc2c(=O)cc(-c3ccncc3)oc2c1OC [NSC 54646]
inhibition at 10 µM [1, 8]: 100%

O=C(O)C1C(C(=O)Nc2ccc3c(c2)Cc2ccccc2-3)C2(Cl)C(Cl)=C(Cl)C1(Cl)C2(Cl)Cl (stereo not shown) [NSC 73101]
inhibition at 100 µM [1, 8]: 100%

Nc1c(OCC(=O)O)ccc2cc(S(=O)(=O)O)ccc12 [NSC 16163]
inhibition at 100 µM [1, 8]: 100%

CC(C)(C)C(=O)C(C(c1ccccc1)N1CCOCC1)N1CCOCC1 (stereo not shown) [NSC 33571]
inhibition at 100 µM [1, 8]: 100%

Nc1c(S(N)(=O)=O)cc(S(N)(=O)=O)cc1S(N)(=O)=O [NSC 25857]
inhibition at 100 µM [1, 8]: 100%

C/C(=N\CC(=O)O)c1ccccc1 [NSC 125214]
remaining activity at 100 µM [1]: 53%

Oc1cc(O)c2c(c1)OC(c1ccc(O)c(O)c1)C(OC1(c3cc(O)c(O)c(O)c3)Oc3cc(O)cc(O)c3C(O)C1O)C2 (stereo not shown) [NSC 143101]
inhibition at 0.5 µM [1, 8]: 100%
inhibition at 0.5 µM [2, 9]: 70%

CNCSC(C)c1ccc(O)c(O)c1 (stereo not shown) [NSC 39215]
remaining activity at 100 µM [1]: 27%

Cc1cc(N)c2cc(NC(=O)Nc3ccc4nc(C)cc(N)c4c3)ccc2n1 [NSC 12155]
inhibition at 2.5 µM [1, 8]: 100%
inhibition at 0.5 µM [2, 9]: 40%

O=[N+]([O-])/C=C/c1cc2ccccc2[nH]1 [NSC 150982]
remaining activity at 100 µM [1]: 54%

O=C(O)C(=O)Cc1ccc2c(c1)OCO2 [NSC 112983]
anisotropy of Y274F-DNA complex in presence of compound (Y274F vTopo): unchanged
effect on the single-turnover cleavage rate (vTopo [4]; 8 μM): no effect
cleavage rate kcl (vTopo [4]; in the presence of 8 μM 112983 (2.3±0.06 in its absence)): 1.8 ± 0.05 s⁻¹
decrease of percent covalently bound DNA (vTopo [5]; 100 μM compound): 50%
decrease in the amount of covalent complex (vTopo [5]; 100 μM, vs control without compound): 2 fold
% covalent complex remaining (vTopo [6]): 7%
decrease of fraction covalent complex remaining (vTopo [6]): 50%
inhibition of the hTopo supercoil relaxation reaction [7]: no detectable inhibition
IC50 [1]: ~2 µM
Ki [1]: 1.6 ± 0.6 µM
remaining activity at 100 µM [1]: 9%
inhibition at 8 µM ([1]; read-out: inhibition of the ribonuclease reaction rate): ~75%
IC50 [2]: ~7 µM
inhibition of the supercoil relaxation activity of vTopo [2]: complete inhibition

O=C1CNCCCN2CCN(CCCNCC(=O)Nc3ccc(cc3)S(=O)(=O)c3ccc(cc3)NC(=O)CNCCCN3CCN(CCCNCC(=O)Nc4ccc(cc4)S(=O)(=O)c4ccc(cc4)N1)CC3)CC2 [NSC 95609]
inhibition at 100 µM [1, 8]: 100%

Oc1c(Cl)cc(C(c2cc(Cl)c(O)c(Cl)c2)C(c2cc(Cl)c(O)c(Cl)c2)c2cc(Cl)c(O)c(Cl)c2)cc1Cl [NSC 172033]
inhibition at 10 µM [1, 8]: 100%

CN(C)Cc1cc(O)c(O)c(CN(C)C)c1 [NSC 39225]
remaining activity at 100 µM [1]: 52%

O=C(O)c1cc2c(cc1S(=O)(=O)O)C1C(C3C2C2(Cl)C(Cl)=C(Cl)C3(Cl)C2(Cl)Cl)C2(Cl)C(Cl)=C(Cl)C1(Cl)C2(Cl)Cl (stereo not shown) [NSC 270718]
% Inhibition (RNAse HTS) ([1]; 10 µM): 100% @

O=C(O)Cc1c(O)ccc2ccccc12 [NSC 163339]
remaining activity at 100 µM [1]: 48%

CN(C)CS/C(N)=N/[C@H](O)C(Cl)(Cl)Cl [NSC 14555]
% vTopo activity [1]: 28%
inhibition of the relaxation reaction [2]: complete inhibition

CC(CCC(=O)O)(c1cc(Br)c(O)c(Br)c1)c1cc(Br)c(O)c(Br)c1 [NSC 21588]
inhibition at 1.2 µM [1, 8]: 100%
inhibition at 5 µM [2, 9]: 100%

O=C(O)c1cc(-c2ccc(-c3ccc(-c4cc(C(=O)O)c5cc(Cl)ccc5n4)cc3)cc2)nc2ccc(Cl)cc12 [NSC 210627]
inhibition at 100 µM [1, 8]: 100%

CC(CCC(=O)O)C1CCC2C3CCC4CC(O)CCC4(C)C3CCC12C (stereo not shown) [NSC 683770]
inhibition at 100 µM [1, 8]: 100%

CC[C@@]1(O)C(=O)OCc2c1cc1n(c2=O)Cc2cc3ccccc3nc2-1 [NSC 100880]
% Inhibition (RNAse HTS) ([1]; 100 µM): Partial @100 μM

Oc1cc(O)c2c(c1)OC(c1ccc(O)c(O)c1)C(O)C2c1c(O)cc(O)c2c1OC(c1ccc(O)c(O)c1)C(O)C2 (stereo not shown) [NSC 143099]
inhibition at 1 µM [1, 8]: 100%
inhibition at 5 µM [2, 9]: 100%

O=C1C=C/C(=N/c2cccc3c(/N=C4/C=CC(=O)O4)cccc23)O1 [NSC 69575]
inhibition at 100 µM [1, 8]: 100%

Cc1cc(N)c2cc(OCCOc3ccc4nc(C)cc(N)c4c3)ccc2n1 [NSC 22907]
inhibition at 100 µM [1, 8]: 100%

Cc1ccc(NC(=[OH+])c2cc3ccccc3cc2O)c(C)c1.Cc1ccc(NC(=[OH+])c2cc3ccccc3cc2O)c(C)c1.[Ni] [NSC 306698]
% Inhibition (RNAse HTS) ([1]; 100 µM): 100% @100 μM

O=C(O)c1cnc2c(ccc3ncc(C(=O)O)c(O)c32)c1O [NSC 1288884]
% Inhibition (RNAse HTS) ([1]; 100 µM): Partial @100 μM

O=C(O)C(O)(c1ccc(-c2ccccc2)cc1)c1ccc(-c2ccccc2)cc1 [NSC 28086]
inhibition at 1 µM [1, 8]: 100%
inhibition at 5 µM [2, 9]: 100%

CC(=O)c1ccccc1C(=O)c1ccc(C(=O)O)c(C(=O)O)c1 [NSC 28620]
inhibition at 1 µM [1, 8]: 100%
inhibition at 5 µM [2, 9]: 100%

COc1cc(C)cc2c(-c3c(O)cc(O)c4c3CC(C)NC4C)cc(-c3cc(-c4c(O)cc(O)c5c4CC(C)NC5C)c4cc(C)cc(OC)c4c3O)c(O)c12 (stereo not shown) [NSC 661755]
inhibition at 10 µM [1, 8]: 100%

Cc1ccc2nc(-c3ccc(NC(=O)c4ccc(N)cc4)c(S(=O)(=O)O)c3)sc2c1 [NSC 26699]
inhibition at 100 µM [1, 8]: 100%

CCCCCC(O)C1C(=O)OC(C)O/C=C/C=C/C=CC=C/C=C(/C)C(O)CC(O)CC(O)CC(O)CC(O)CC(O)CC1O (stereo not shown) [NSC 3364]
inhibition at 100 µM [1, 8]: 100%

Nc1ncnc2nc[nH]c12.Nc1ncnc2nc[nH]c12.[Cl][Pt]([Cl])([Cl])[Cl] [NSC 177395]
% Inhibition (RNAse HTS) ([1]; 100 µM): 100% @

O=C(O)CSCc1ccc(N=C=S)c(O)c1 [NSC 403376]
remaining activity at 100 µM [1]: 45%

Cc1cc(Cl)nc2ccc(Cc3ccc4nc(Cl)cc(C)c4c3)cc12 [NSC 109451]
% Inhibition (RNAse HTS) ([1]; 100 µM): Partial @100 μM

O=C(O)c1ccc2ccc(-c3cccc4cccc(C(=O)O)c34)cc2c1 [NSC 7810]
inhibition at 2.5 µM [1, 8]: 100%
inhibition at 10 µM [2, 9]: 100%

COc1ccc2nc3cc(Cl)ccc3c(Nc3ccc(O)c(CN4CCN(C)CC4)c3)c2c1 [NSC 130813]
inhibition at 100 µM [1, 8]: 100%

COc1ccc(/C=N/c2c(O)ccc3ccccc23)cc1OC [NSC 17061]
% Inhibition (RNAse HTS) ([1]; 100 µM): Partial @100 μM

CC1CCC2(C(=O)O)CCC3(C)C(=CCC4C5(C)CC(O)C(O)C(C)(CO)C5C(O)CC43C)C2C1C (stereo not shown) [NSC 88135]
inhibition at 100 µM [1, 8]: 100%

O=C(O)CCc1ccc(-c2ccccc2)[nH]1 [NSC 75600]
remaining activity at 100 µM [1]: 35%

Cc1c/c(=N\c2ccc3c(c2)c(N)cc(C)[n+]3C)nc(N)n1C [NSC 48223]
inhibition at 100 µM [1, 8]: 100%

COP(OCc1ccccc1)Oc1cccc2c1C(=O)c1cn3c(c1C2=O)C(C)c1ccccc1C3 (stereo not shown) [NSC 611615]
inhibition at 100 µM [1, 8]: 100%

CCC(=C(C)C)c1ccc(Oc2cccc(C(=O)O)c2)cc1 [NSC 7962]
remaining activity at 100 µM [1]: 33%

CCC(O)[NH+]1CC[NH+](C(O)CC)CC1.[Cl][Pt-2]([Cl])([Cl])([Cl])([Cl])[Cl] (stereo not shown) [NSC 295558]
% Inhibition (RNAse HTS) ([1]; 100 µM): 100% @

Cc1ccc(S(=O)(=O)C2C(C3COC(C)(C)O3)OC3OC(C)(C)OC32)cc1 (stereo not shown) [NSC 14163]
Selectivity [7]: >3333
inhibition at 20 µM [7, 9]: 0%
inhibition at 2.5 µM [1, 8]: 100%
inhibition at 5 µM [2, 9]: 50%

Cc1cc(O)c(-c2cc(O)c(C)cc2O)cc1O [NSC 2805]
remaining activity at 100 µM [1]: 30%

Nc1ccc(S(=O)(=O)c2ccc(NCN3C(=O)NC(=O)C(=O)C3=O)cc2)cc1 [NSC 34238]
inhibition at 100 µM [1, 8]: 100%

C[C@]12CCC(=O)C=C1CCC1[C@@H]3CC[C@H](C(=O)OS(=O)(=O)c4ccc(Br)cc4)C3CC[C@@H]12 (stereo partly shown) [NSC 88915]
Selectivity [7]: 833
inhibition at 5 µM [7, 9]: 50%
inhibition at 0.5 µM [1, 8]: 100%
inhibition at 0.006 µM [2, 9]: 50%

CN1CCN(c2ccc3[nH]c(-c4ccc5[nH]c(-c6ccc(O)cc6)nc5c4)nc3c2)CC1 [NSC 322921]
inhibition at 100 µM [1, 8]: 100%
